Measured values: PubChem BioAssay (NCI)
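Compound exposure: 48 hours, 5 concentrations, 96-well plates. At the TGI there is no net growth.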

Experiments:
Assay in all cases: growth of human tumour cells (NCI), 48 h
786-0 renal = test system: 786-0 renal
A498 renal = test system: A498 renal
A549 NSCLC = test system: A549 NSCLC
ACHN renal = test system: ACHN renal
BT-549 breast = test system: BT-549 breast
CAKI-1 renal = test system: CAKI-1 renal
CCRF-CEM leukemia = test system: CCRF-CEM leukemia
COLO 205 colon = test system: COLO 205 colon
DU-145 prostate = test system: DU-145 prostate
EKVX NSCLC = test system: EKVX NSCLC
HCC-2998 colon = test system: HCC-2998 colon
HCT-116 colon = test system: HCT-116 colon
HCT-15 colon = test system: HCT-15 colon
HL-60(TB) leukemia = test system: HL-60(TB) leukemia
HOP-62 NSCLC = test system: HOP-62 NSCLC
HOP-92 NSCLC = test system: HOP-92 NSCLC
HS 578T breast = test system: HS 578T breast
HT29 colon = test system: HT29 colon
IGROV1 ovarian = test system: IGROV1 ovarian
K-562 leukemia = test system: K-562 leukemia
KM12 colon = test system: KM12 colon
LOX IMVI melanoma = test system: LOX IMVI melanoma
M14 melanoma = test system: M14 melanoma
MALME-3M melanoma = test system: MALME-3M melanoma
MCF7 breast = test system: MCF7 breast
MDA-MB-231 breast = test system: MDA-MB-231 breast
MDA-MB-435 = test system: MDA-MB-435
MDA-N = test system: MDA-N
MOLT-4 leukemia = test system: MOLT-4 leukemia
NCI-H226 lung = test system: NCI-H226 lung
NCI-H23 lung = test system: NCI-H23 lung
NCI-H460 lung = test system: NCI-H460 lung
NCI-H522 lung = test system: NCI-H522 lung
NCI/ADR-RES ovarian = test system: NCI/ADR-RES ovarian
OVCAR-3 ovarian = test system: OVCAR-3 ovarian
OVCAR-4 ovarian = test system: OVCAR-4 ovarian
OVCAR-5 ovarian = test system: OVCAR-5 ovarian
OVCAR-8 ovarian = test system: OVCAR-8 ovarian
PC-3 prostate = test system: PC-3 prostate
RPMI-8226 leukemia = test system: RPMI-8226 leukemia
RXF 393 renal = test system: RXF 393 renal
SF-268 CNS = test system: SF-268 CNS
SF-295 CNS = test system: SF-295 CNS
SF-539 CNS = test system: SF-539 CNS
SK-MEL-2 melanoma = test system: SK-MEL-2 melanoma
SK-MEL-28 melanoma = test system: SK-MEL-28 melanoma
SK-MEL-5 melanoma = test system: SK-MEL-5 melanoma
SK-OV-3 ovarian = test system: SK-OV-3 ovarian
SN12C renal = test system: SN12C renal
SNB-19 CNS = test system: SNB-19 CNS
SNB-75 CNS = test system: SNB-75 CNS
SR leukemia = test system: SR leukemia
SW-620 colon = test system: SW-620 colon
T-47D breast = test system: T-47D breast
TK-10 renal = test system: TK-10 renal
U251 CNS = test system: U251 CNS
UACC-257 melanoma = test system: UACC-257 melanoma
UACC-62 melanoma = test system: UACC-62 melanoma
UO-31 renal = test system: UO-31 renal

Cn1ccnc1Sc1ccc(/C=N/NC(=O)c2ccccc2[N+](=O)[O-])cc1[N+](=O)[O-]
TGI (786-0 renal): > 100 µM | TGI (A498 renal): > 100 µM | TGI (A549 NSCLC): > 100 µM | TGI (ACHN renal): > 100 µM | TGI (BT-549 breast): > 100 µM | TGI (CAKI-1 renal): > 100 µM | TGI (CCRF-CEM leukemia): > 100 µM | TGI (COLO 205 colon): > 100 µM | TGI (DU-145 prostate): > 100 µM | TGI (EKVX NSCLC): > 100 µM | TGI (HCC-2998 colon): 95.6 µM | TGI (HCT-116 colon): > 100 µM | TGI (HCT-15 colon): > 100 µM | TGI (HL-60(TB) leukemia): > 100 µM | TGI (HOP-62 NSCLC): > 100 µM | TGI (HOP-92 NSCLC): > 100 µM | TGI (HS 578T breast): > 100 µM | TGI (HT29 colon): > 100 µM | TGI (IGROV1 ovarian): > 100 µM | TGI (K-562 leukemia): > 100 µM | TGI (KM12 colon): > 100 µM | TGI (LOX IMVI melanoma): > 100 µM | TGI (M14 melanoma): > 100 µM | TGI (MALME-3M melanoma): > 100 µM | TGI (MCF7 breast): > 100 µM | TGI (MDA-MB-231 breast): 97.6 µM | TGI (MDA-MB-435): > 100 µM | TGI (MDA-N): > 100 µM | TGI (MOLT-4 leukemia): > 100 µM | TGI (NCI-H226 lung): > 100 µM | TGI (NCI-H23 lung): > 100 µM | TGI (NCI-H460 lung): > 100 µM | TGI (NCI-H522 lung): > 100 µM | TGI (NCI/ADR-RES ovarian): > 100 µM | TGI (OVCAR-3 ovarian): > 100 µM | TGI (OVCAR-4 ovarian): > 100 µM | TGI (OVCAR-5 ovarian): > 100 µM | TGI (OVCAR-8 ovarian): > 100 µM | TGI (PC-3 prostate): > 100 µM | TGI (RPMI-8226 leukemia): > 100 µM | TGI (RXF 393 renal): > 100 µM | TGI (SF-268 CNS): > 100 µM | TGI (SF-295 CNS): > 100 µM | TGI (SF-539 CNS): > 100 µM | TGI (SK-MEL-2 melanoma): > 100 µM | TGI (SK-MEL-28 melanoma): > 100 µM | TGI (SK-MEL-5 melanoma): > 100 µM | TGI (SK-OV-3 ovarian): > 100 µM | TGI (SN12C renal): > 100 µM | TGI (SNB-19 CNS): > 100 µM | TGI (SNB-75 CNS): > 100 µM | TGI (SR leukemia): > 100 µM | TGI (SW-620 colon): > 100 µM | TGI (T-47D breast): > 100 µM | TGI (TK-10 renal): > 100 µM | TGI (U251 CNS): > 100 µM | TGI (UACC-257 melanoma): > 100 µM | TGI (UACC-62 melanoma): > 100 µM | TGI (UO-31 renal): > 100 µM

Cn1c(=O)cc(NNc2ccccc2)[nH]c1=O
TGI (786-0 renal): 30 µM | TGI (A498 renal): > 100 µM | TGI (A549 NSCLC): > 100 µM | TGI (ACHN renal): > 100 µM | TGI (BT-549 breast): > 100 µM | TGI (CAKI-1 renal): 29.2 µM | TGI (CCRF-CEM leukemia): 90.4 µM | TGI (COLO 205 colon): > 100 µM | TGI (DU-145 prostate): > 100 µM | TGI (EKVX NSCLC): > 100 µM | TGI (HCC-2998 colon): > 100 µM | TGI (HCT-116 colon): 31.6 µM | TGI (HCT-15 colon): 30.1 µM | TGI (HL-60(TB) leukemia): 56.8 µM | TGI (HOP-62 NSCLC): > 100 µM | TGI (HOP-92 NSCLC): 44.7 µM | TGI (HS 578T breast): > 100 µM | TGI (HT29 colon): 29.1 µM | TGI (IGROV1 ovarian): 85.7 µM | TGI (K-562 leukemia): > 100 µM | TGI (KM12 colon): 49.9 µM | TGI (LOX IMVI melanoma): 28.3 µM | TGI (M14 melanoma): 89.9 µM | TGI (MALME-3M melanoma): 75.9 µM | TGI (MCF7 breast): 12.8 µM | TGI (MDA-MB-231 breast): 33.5 µM | TGI (MDA-MB-435): 75 µM | TGI (MDA-N): > 100 µM | TGI (MOLT-4 leukemia): > 100 µM | TGI (NCI-H226 lung): > 100 µM | TGI (NCI-H23 lung): > 100 µM | TGI (NCI-H460 lung): > 100 µM | TGI (NCI-H522 lung): 28.9 µM | TGI (NCI/ADR-RES ovarian): > 100 µM | TGI (OVCAR-3 ovarian): 30.4 µM | TGI (OVCAR-4 ovarian): > 100 µM | TGI (OVCAR-5 ovarian): > 100 µM | TGI (OVCAR-8 ovarian): 42.1 µM | TGI (PC-3 prostate): > 100 µM | TGI (RPMI-8226 leukemia): 48.1 µM | TGI (RXF 393 renal): 33.6 µM | TGI (SF-268 CNS): > 100 µM | TGI (SF-295 CNS): > 100 µM | TGI (SF-539 CNS): > 100 µM | TGI (SK-MEL-2 melanoma): > 100 µM | TGI (SK-MEL-28 melanoma): 60.4 µM | TGI (SK-MEL-5 melanoma): > 100 µM | TGI (SK-OV-3 ovarian): > 100 µM | TGI (SN12C renal): > 100 µM | TGI (SNB-19 CNS): > 100 µM | TGI (SNB-75 CNS): > 100 µM | TGI (SR leukemia): 57.8 µM | TGI (SW-620 colon): 31.3 µM | TGI (T-47D breast): 38.9 µM | TGI (TK-10 renal): 65.9 µM | TGI (U251 CNS): 31.7 µM | TGI (UACC-257 melanoma): > 100 µM | TGI (UACC-62 melanoma): > 100 µM | TGI (UO-31 renal): > 100 µM
